Data from patent publication US7205403B2, “8-Heteroaryl xanthine adenosine A2B receptor antagonists” (King Pharmaceuticals Research and Development, Inc., priority 2002, dated 2007).
“Also recorded” adds a separate entry of the source. Like-named read-outs stand apart in the source and are kept apart here.

Legend:
[1] = molecular target: T1, human A1 adenosine receptor (Homo sapiens, UniProt P30542); assay: [3H]DPCPX binding to human A1 receptors expressed in CHO cells
T1 construct: expressed in transfected cells; host or cells: CHO cells (membranes)
T1 sequence (P30542 1-326): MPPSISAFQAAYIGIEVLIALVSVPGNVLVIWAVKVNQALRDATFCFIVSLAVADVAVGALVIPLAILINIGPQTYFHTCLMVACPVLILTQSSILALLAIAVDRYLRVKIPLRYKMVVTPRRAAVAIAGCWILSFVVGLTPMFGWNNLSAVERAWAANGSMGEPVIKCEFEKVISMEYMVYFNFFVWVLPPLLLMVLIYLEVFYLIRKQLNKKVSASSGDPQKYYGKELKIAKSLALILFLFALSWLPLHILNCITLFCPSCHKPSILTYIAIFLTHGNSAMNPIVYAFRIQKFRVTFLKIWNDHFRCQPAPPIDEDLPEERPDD
Method: (§1) The cells were grown adherently and maintained in Dulbecco's modified Eagle's medium with nutrient mixture F12 without nucleosides at 37° C. in 5% CO2/95% air. The cells were washed with phosphate-buffered saline and scraped off flasks in ice cold hypotonic buffer ([…] Tris HCl, 2 mM EDTA, pH 7.4). The cell suspension was homogenized with a Polytron and the homogenate was centrifuged for 30 minutes at 48,000 g. The resultant membrane pellet was re-suspended in 50 mM Tris HCl buffer at pH 7.4 for A1 adenosine receptors; in 50 mM Tris HCl 10 mM MgCl, at pH 7.4 for A2A adenosine receptors; in 50 mM Tris HCl, 10 mM MgCl2, 1 mM EDTA, at pH 7.4 for A3 adenosine receptors and were utilized for binding assays.
Displacement experiments were performed for 120 minutes at 25° C. in 200 μl of buffer containing 1 nM ^3H]-DPCPX 20 μl of diluted membranes (50 μg of protein/assay) and at least 6 to 8 different concentrations of examined compounds.
(§2) The filter bound radioactivity was counted on Top Count (efficiency 57%) with Micro-Scint 20.
(§3) The filter bound radioactivity was counted on a Top Count brand Microplate Scintillation Counter (efficiency 57%) with Micro-Scint 20. […] Inhibitory binding constant. […] Results and Discussion

[2] = molecular target: T2, human A2A adenosine receptor (Homo sapiens, UniProt P29274); assay: [3H]ZM241385 binding to human A2A receptors expressed in CHO cells; conditions: for Ki: read-out: Ki, [3H]ZM241385 binding to human A2A receptors expressed in CHO cells; for Ki, [3H]ZM241385 binding to human A2A receptors expressed in CHO cells: geometric mean (95% confidence interval), >1000 = no appreciable binding
T2 construct: expressed in transfected cells; host or cells: CHO cells (membranes)
Method: as §1, §2, §3

[3] = molecular target: T3, human A3 adenosine receptor (Homo sapiens, UniProt P0DMS8); assay: [3H]MRE3008F20 binding to human A3 receptors expressed in CHO cells; conditions: for Ki, [3H]MRE3008F20 binding to human A3 receptors expressed in CHO cells: geometric mean (95% confidence interval), >1000 = no appreciable binding
T3 construct: expressed in transfected cells; host or cells: CHO cells (membranes)
T3 sequence (P0DMS8 1-318): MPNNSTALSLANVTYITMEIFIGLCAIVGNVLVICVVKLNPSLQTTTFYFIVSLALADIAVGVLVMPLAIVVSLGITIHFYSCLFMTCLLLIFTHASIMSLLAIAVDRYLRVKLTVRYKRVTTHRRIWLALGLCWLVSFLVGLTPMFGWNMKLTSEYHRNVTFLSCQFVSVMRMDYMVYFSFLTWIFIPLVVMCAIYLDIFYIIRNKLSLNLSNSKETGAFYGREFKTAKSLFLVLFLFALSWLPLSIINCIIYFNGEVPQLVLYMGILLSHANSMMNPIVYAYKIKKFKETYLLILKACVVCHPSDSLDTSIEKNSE
Method: as §1
Binding of [^3H]-MRE3008-F20 to CHO cells transfected with the human recombinant A3 adenosine receptors was performed according to Varani et al., 2000. Competition experiments were carried out in duplicate in a final volume of 250 μl in test tubes containing 1 nM [^3H]-MRE3008-F20, 50 mM Tris HCl buffer, […] MgCl2, pH 7.4 and 100 μl of diluted membranes (50 μg of protein/assay) and at least 6–8 different concentrations of examined ligands for 120 minutes at 4° C.
as §2, §3

[4] = molecular target: T4, human A2B adenosine receptor (Homo sapiens, UniProt P29275); assay: [3H]DPCPX binding to human A2B receptors expressed in HEK293 cells; set-up: host or cells: HEK 293 cells (membranes); conditions: geometric mean (95% confidence interval); >1000 = no appreciable binding; read-out: Ki, [3H]DPCPX binding to human A2B receptors expressed in HEK293 cells
T4 sequence (P29275 1-332): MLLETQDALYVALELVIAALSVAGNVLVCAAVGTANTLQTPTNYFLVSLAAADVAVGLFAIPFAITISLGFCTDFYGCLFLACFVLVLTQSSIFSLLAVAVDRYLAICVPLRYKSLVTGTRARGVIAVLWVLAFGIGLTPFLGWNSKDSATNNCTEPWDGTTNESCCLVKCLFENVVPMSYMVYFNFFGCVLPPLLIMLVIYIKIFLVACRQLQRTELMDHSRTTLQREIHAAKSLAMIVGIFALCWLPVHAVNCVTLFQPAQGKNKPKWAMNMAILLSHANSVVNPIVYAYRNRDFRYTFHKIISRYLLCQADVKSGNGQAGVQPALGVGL
Method: HEK 293 cells transfected with the human recombinant A2B adenosine receptor were obtained from Receptor Biology, Inc. (Beltsville, Md. USA).
Binding of 1 [^3H]-DPCPX to HEK 293 cells transfected with the human recombinant A2B adenosine receptors was performed according to the method described by Varani et al., 2000. In particular, assays were carried out for 60 minutes at 25° C. in 100 μl of […] Tris HCl buffer, […] MgCl2, 1 mM EDTA, 0.1 mM benzamidine pH 7.4, 2 IU/ml adenosine deaminase containing 40 nM [^3H]-DPCPX, diluted membranes (20 μg of protein/assay) and at least 6–8 different concentration of tested compounds.
as §2, §3

[5] = geometric mean (95% confidence interval), >1000 = no appreciable binding

T2 sequence (P29274 whole entry): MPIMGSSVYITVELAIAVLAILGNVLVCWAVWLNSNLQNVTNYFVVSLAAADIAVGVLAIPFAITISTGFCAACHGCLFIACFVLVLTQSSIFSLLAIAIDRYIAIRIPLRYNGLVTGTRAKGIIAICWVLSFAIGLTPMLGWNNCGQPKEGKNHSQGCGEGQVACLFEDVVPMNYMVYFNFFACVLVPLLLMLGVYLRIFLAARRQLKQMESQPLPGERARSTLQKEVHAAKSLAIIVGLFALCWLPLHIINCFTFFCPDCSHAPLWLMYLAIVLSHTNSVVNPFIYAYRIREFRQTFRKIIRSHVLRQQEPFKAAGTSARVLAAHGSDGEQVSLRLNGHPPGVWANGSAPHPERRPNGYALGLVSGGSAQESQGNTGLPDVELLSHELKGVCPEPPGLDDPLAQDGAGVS

| Structure (SMILES) | Ki [1, 5] | Ki [2] | Ki [3] | Ki [4] | Ki [1] | Ki, [3H]DPCPX binding to human A1 receptors expressed in CHO cells [1, 5] | Ki, [3H]ZM241385 binding to human A2A receptors expressed in CHO cells [2] | Ki, [3H]MRE3008F20 binding to human A3 receptors expressed in CHO cells [3] |
| --- | --- | --- | --- | --- | --- | --- | --- | --- |
| CCCn1c(=O)c2[nH]c(-c3cc(N)nn3C)nc2n(CCC)c1=O [AS3, 8-(3-amino-1-methyl-1H-pyrazol-5-yl)-1,3-dipropyl-3,7-dihydro-1H-purine-2,6-dione] | 0.201 µM | > 1 µM | > 1 µM | 0.235 µM |  |  |  |  |
| CCCn1c(=O)c2[nH]c(-c3cc([N+](=O)[O-])cn3C)nc2n(CCC)c1=O [AS7, 8-(1-methyl-4-nitro-1H-pyrrol-2-yl)-1,3-dipropyl-3,7-dihydro-1H-purine-2,6-dione] |  | > 1 µM | > 1 µM | 0.342 µM | 0.122 µM |  |  |  |
| CCCn1c(=O)c2[nH]c(-c3cc(NC(=O)CCCNC(=O)OC(C)(C)C)nn3C)nc2n(CCC)c1=O [AS9, tert-butyl 4-{[5-(2,6-dioxo-1,3-dipropyl-2,3,6,7-tetrahydro-1H-purin-8-yl)-1-methyl-1H-pyrazol-3-yl]amino}-4-oxobutylcarbamate] |  | > 1 µM | > 1 µM | > 1 µM | > 1 µM |  |  |  |
| CCCn1c(=O)c2[nH]c(-c3cc(NC(=O)CCCN)nn3C)nc2n(CCC)c1=O [AS10, 4-{[5-(2,6-dioxo-1,3-dipropyl-2,3,6,7-tetrahydro-1H-purin-8-yl)-1-methyl-1H-pyrazol-3-yl]amino}-4-oxobutan-1-aminium chloride] | 0.548 µM | > 1 µM | > 1 µM | 2.06 µM |  |  |  |  |
| CCCn1c(=O)c2[nH]c(-c3cc(NC(=O)COc4ccc(Cl)cc4Cl)nn3C)nc2n(CCC)c1=O [AS12, 2-(2,4-dichlorophenoxy)-N-[5-(2,6-dioxo-1,3-dipropyl-2,3,6,7-tetrahydro-1H-purin-8-yl)-1-methyl-1H-pyrazol-3-yl]acetamide] |  | > 1 µM | > 1 µM | > 1 µM | > 1 µM |  |  |  |
| CCCn1c(=O)c2[nH]c(-c3cc(NC(=O)Cc4cccc(OC)c4)nn3C)nc2n(CCC)c1=O [AS13, 2-(3-methoxyphenyl)-N-[5-(2,6-dioxo-1,3-dipropyl-2,3,6,9-tetrahydro-1H-purin-8-yl)-1-methyl-1H-pyrazol-3-yl]acetamide] |  | > 1 µM | > 1 µM | 0.096 µM |  | no appreciable affinity; also recorded: without significant binding | no appreciable affinity; also recorded: without significant binding | no appreciable affinity; also recorded: without significant binding |
| CCCn1c(=O)c2[nH]c(-c3cc(NC(=O)Cc4ccc([N+](=O)[O-])cc4)nn3C)nc2n(CCC)c1=O [AS15, N-[5-(2,6-dioxo-1,3-dipropyl-2,3,6,9-tetrahydro-1H-purin-8-yl)-1-methyl-1H-pyrazol-3-yl]-2-(4-nitrophenyl)acetamide] |  | > 1 µM | > 1 µM | 0.078 µM |  | no appreciable affinity; also recorded: without significant binding | no appreciable affinity; also recorded: without significant binding | no appreciable affinity; also recorded: without significant binding |
| CCCn1c(=O)c2[nH]c(-c3cc(NC(=O)Cc4ccc(OCc5ccccc5)cc4)nn3C)nc2n(CCC)c1=O [AS16, 2-[4-benzyloxyphenyl]-N-[5-(2,6-dioxo-1,3-dipropyl-2,3,6,9-tetrahydro-1H-purin-8-yl)-1-methyl-1H-pyrazol-3-yl]acetamide] |  | > 1 µM | > 1 µM | 0.056 µM |  | no appreciable affinity; also recorded: without significant binding | no appreciable affinity; also recorded: without significant binding | no appreciable affinity; also recorded: without significant binding |
| CCCn1c(=O)c2[nH]c(-c3cc(NC(=O)Cc4ccc(O)cc4)nn3C)nc2n(CCC)c1=O [AS17, 2-[4-hydroxyphenyl]-N-[5-(2,6-dioxo-1,3-dipropyl-2,3,6,9-tetrahydro-1H-purin-8-yl)-1-methyl-1H-pyrazol-3-yl]acetamide] |  | > 1 µM | > 1 µM | 0.103 µM |  | no appreciable affinity; also recorded: without significant binding | no appreciable affinity; also recorded: without significant binding | no appreciable affinity; also recorded: without significant binding |
| CCCn1c(=O)c2c(nc(/C=C/c3cc(COC(=O)c4ccccc4)on3)n2C)n(CCC)c1=O [AS20, {3-[(E)-2-(1,3-dipropyl-7-methyl-2,6-dioxo-2,3,6,7-tetrahydro-1H-purin-8-yl)vinyl]isoxazol-5-yl}methyl benzoate] |  | > 1 µM | > 1 µM | > 1 µM | > 1 µM |  |  |  |
| CCCn1c(=O)c2[nH]c(-c3cc(NC(=O)COc4ccc(Cl)cc4)nn3C)nc2n(CCC)c1=O [AS21, 2-(4-chlorophenoxy)-N-[5-(1,3-dipropyl-2,6-dioxo-2,3,6,7-tetrahydro-1H-purin-8-yl)-1-methyl-1H-pyrazol-3-yl]acetamide] |  | > 1 µM | > 1 µM | > 1 µM | > 1 µM |  |  |  |
| CCCn1c(=O)c2[nH]c(-c3cc(N)n(C)n3)nc2n(CCC)c1=O [AS37, 8-(5-amino-1-methyl-1H-pyrazol-3-yl)-1,3-dipropyl-3,7-dihydro-1H-purine-2,6-dione] | 0.14 µM |  |  | 0.058 µM |  |  |  |  |
| CC(C)Cn1c(=O)c2nc(-c3cc(OCC(=O)Nc4ccc(F)cc4)nn3C)[nH]c2n(CC(C)C)c1=O [AS66, 2-{[5-(1,3-diisobutyl-2,6-dioxo-2,3,6,9-tetrahydro-1H-purin-8-yl)-1-methyl-1H-pyrazol-3-yl]oxy}-N-(4-fluorophenyl)acetamide] | 0.467 µM |  |  | 0.303 µM |  |  |  |  |
| CCCn1c(=O)c2[nH]c(-c3cc(OCC(=O)Nc4ccncc4)nn3C)nc2n(CCC)c1=O [AS89] | 0.955 µM |  |  | 0.041 µM |  |  |  |  |
| CCCn1c(=O)c2[nH]c(-c3cc(OCC(=O)N4CCN(Cc5ccccc5)CC4)nn3C)nc2n(CCC)c1=O [AS90] | 0.81 µM |  |  | 0.085 µM |  |  |  |  |
| CCCn1c(=O)c2[nH]c(-c3cc(OCC(=O)Nc4ccc(C(C)CC)cc4)nn3C)nc2n(CCC)c1=O (centres unmarked) [AS91, 1,3-di-n-propyl-8-{5-[(4-sec-butyl-phenylcarbamoyl)-methoxy]-2-methyl-2H-pyrazole-3-yl}-xanthine] | 1.01 µM |  |  | 0.074 µM |  |  |  |  |
